According to PubChem BioAssay (NCI):
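A five-concentration, 48-hour dose response in 96-well plates underlies each endpoint, interpolated linearly between surrounding concentrations. TGI marks complete inhibition of growth.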

Columns and labels:
Assay in all cases: NCI anticancer screen, dose series, 48 h
DMS 114 small cell lung = system: DMS 114 small cell lung
TK-10 renal = system: TK-10 renal
NCI-H522 lung = system: NCI-H522 lung
DMS 273 small cell lung = system: DMS 273 small cell lung
SF-295 CNS = system: SF-295 CNS
DLD-1 colon = system: DLD-1 colon
CAKI-1 renal = system: CAKI-1 renal
A549 NSCLC = system: A549 NSCLC
SN12C renal = system: SN12C renal
KM12 colon = system: KM12 colon
COLO 205 colon = system: COLO 205 colon
HL-60(TB) leukemia = system: HL-60(TB) leukemia
CCRF-CEM leukemia = system: CCRF-CEM leukemia
MALME-3M melanoma = system: MALME-3M melanoma
LXFL 529 NSCLC = system: LXFL 529 NSCLC
OVCAR-5 ovarian = system: OVCAR-5 ovarian
HCT-15 colon = system: HCT-15 colon
M14 melanoma = system: M14 melanoma
LOX IMVI melanoma = system: LOX IMVI melanoma
UO-31 renal = system: UO-31 renal
OVCAR-4 ovarian = system: OVCAR-4 ovarian
UACC-62 melanoma = system: UACC-62 melanoma
KM20L2 colon = system: KM20L2 colon
HCT-116 colon = system: HCT-116 colon
RPMI-8226 leukemia = system: RPMI-8226 leukemia
SF-268 CNS = system: SF-268 CNS
SF-539 CNS = system: SF-539 CNS
EKVX NSCLC = system: EKVX NSCLC
MOLT-4 leukemia = system: MOLT-4 leukemia
SK-MEL-2 melanoma = system: SK-MEL-2 melanoma
K-562 leukemia = system: K-562 leukemia
HT29 colon = system: HT29 colon
ACHN renal = system: ACHN renal
SR leukemia = system: SR leukemia
HOP-92 NSCLC = system: HOP-92 NSCLC
SW-620 colon = system: SW-620 colon
SNB-19 CNS = system: SNB-19 CNS
SK-OV-3 ovarian = system: SK-OV-3 ovarian
OVCAR-8 ovarian = system: OVCAR-8 ovarian
OVCAR-3 ovarian = system: OVCAR-3 ovarian
M19-MEL melanoma = system: M19-MEL melanoma
NCI-H460 lung = system: NCI-H460 lung
NCI-H226 lung = system: NCI-H226 lung
HCC-2998 colon = system: HCC-2998 colon
IGROV1 ovarian = system: IGROV1 ovarian
SK-MEL-28 melanoma = system: SK-MEL-28 melanoma
HOP-62 NSCLC = system: HOP-62 NSCLC

Measured: TGI

COc1ccc(-c2c3ccccc3c(-c3ccc(OCCCCCBr)cc3)c3ccccc23)cc1
> 100 µM: all assays above
